Measured values as given in paper PMC5286460 (ACS Omega, 2017).
“Also recorded” adds a separate entry of the source.

Experiments:
[1] = UV–vis absorption and fluorescence spectroscopy; type: physicochemical; settings: 10% DMSO; for λmax abs: 10-15 μM
healthy CD-1 mice = assay: In vivo biodistribution imaging in healthy mice; set-up: species or system mouse; settings: for pancreas specificity / accumulation: systemic administration
[2] = Cell viability by Cell Titer-Blue assay; type: cell-based; settings: human, Capan-1 cells
[3] = test system: genetically modified PDAC mice; assay: In vivo biodistribution and ex vivo pathology in PDAC tumor-bearing mice; set-up: species or system mouse; settings: 100 nmol systemic, 1.5 h
[4] = test system: pancreas tissue derived from healthy and PDAC mice; assay: Ex vivo staining of pancreas tissue from healthy and PDAC mice; settings: PDAC mouse pancreas tissue slides
Capan-1 cells [5] = assay: Subcellular colocalization, live cell imaging; type: cell-based, human; settings: 0.5 μM, 1 h incubation
Capan-1 cells [6] = assay: Cellular uptake in Capan-1 cells; type: cell-based, human; settings: within 30 min of application
[7] = acidic solution pH 1.9, 12.5 mM HCl

Row | Stokes shift ([1]; pH 7.4 phosphate buffer) | brightness ([1]; pH 7.4 phosphate buffer) | λmax em ([1]; pH 7.4 phosphate buffer) | φ (quantum yield) ([1]; pH 7.4 phosphate buffer) | λmax abs ([1]; pH 7.4 phosphate buffer) | SMILES | pancreas specificity / accumulation (healthy CD-1 mice) | other results
1 |  |  |  |  |  | COC(=O)c1ccccc1-c1c2ccc(=N)cc-2oc2c1ccc1cccc(O)c12.Cl [Compound 3] |  | Stokes shift [1, 7]: 62 nm; brightness [1, 7]: 226; λmax em [1, 7]: 604 nm; φ (quantum yield) [1, 7]: 1.14%; λmax abs [1, 7]: 542 nm
2 | 38 nm | 2094 | 606 nm | 9.32% | 568 nm | COC(=O)c1ccccc1-c1c2ccc(=[N+](C)C)cc-2oc2c1ccc1cccc(OC)c12.[Cl-] [Compound 6] |  | 
3 |  |  |  |  |  | COC(=O)c1ccccc1-c1c2ccc(=O)cc-2oc2c1ccc1cccc(N(C)C)c12 [Compound 8] |  | λmax em ([1]; basic solution pH 12.1, 12.5 mM NaOH): 530 nm
4 | 184 nm | 25 | 760 nm | 0.18% | 576 nm | COC(=O)c1ccccc1-c1c2ccc(=N)cc-2oc2c1ccc1cccc(N)c12.Cl [Compound 9] |  | 
5 |  |  |  |  |  | COC(=O)c1ccccc1C1=c2cc3c4c(c2Oc2c1ccc1cccc(O)c21)CCC[N+]=4CCC3.[Cl-] [Compound 11] |  | Stokes shift [1, 7]: 39 nm; brightness [1, 7]: 2314; λmax em [1, 7]: 624 nm; φ (quantum yield) [1, 7]: 15.3%; λmax abs [1, 7]: 585 nm
6 | 40 nm | 2022 | 622 nm | 11.38% | 582 nm | COC(=O)c1ccccc1C1=c2cc3c4c(c2Oc2c1ccc1cccc(OC)c21)CCC[N+]=4CCC3.[Cl-] [Compound 12] | improved pancreas specificity | uptake in normal pancreas tissue as compared to MB (healthy CD-1 mice; 100 nmol systemic (MB 120 nmol)): 4 fold; fluorescence SBR in the pancreas vs surrounding organs (healthy CD-1 mice; 4 h time point): highest and most persistent fluorescence SBR in the pancreas; IC50 at 24 h [2]: 17.8 µM; PDAC-specific fluorescence / accumulation [3]: Significantly more fluorescence; also recorded: significantly higher than that in the surrounding tissues; ex vivo staining pattern in cancerous tissue [4]: localized in the PDAC-associated ductal epithelial cells; subcellular localization (Capan-1 cells [5]): extensive accumulation in the mitochondria
7 | 139 nm | 85 | 740 nm | 0.66% | 601 nm | COC(=O)c1ccccc1C1=c2cc3c4c(c2Oc2c1ccc1cccc(N)c21)CCC[N+]=4CCC3.[Cl-] [Compound 13] | diminished pancreas accumulation | IC50 at 24 h [2]: 26.1 µM; subcellular localization (Capan-1 cells [5]): extensive accumulation in the mitochondria; relative cellular uptake (Capan-1 cells [6]): greatest uptake
8 |  |  |  |  |  | CN(C)c1ccc2nc3ccc(=[N+](C)C)cc-3sc2c1 [MB, methylene blue, reference compound] | poor penetration into normal pancreas tissue; also recorded: diminished pancreas accumulation | 
